Measurements: patent publication US7405211B2, “Therapeutic morpholino-substituted compounds” (AstraZeneca AB, priority 2000, dated 2008)

Experiments:
Type in all cases: biochemical
[1] = tested on: PI 3-kinase immunoprecipitated from human platelets; experiment: In vitro PI 3-kinase assay (32P incorporation into PI); details: PI 3-kinase from human platelets, PI substrate
Description: The effect of TGX-25, TGX-33, TGX-37, TGX-40, TGX-41, TGX-57, TGX-84, TGX-90, TGX-93, TGX-98, TGX-99, TGX-101, TGX-106, TGX-107, TGX-108, TGX-109, TGX-111, TGX-112, TGX-113, TGX-115, TGX-120, TGX-121, TGX-123, TGX-124, TGX-126, TGX-127, TGX-130 or TGX-131on PI 3-kinase activity was determined using an in vitro PI 3-kinase assay. This assay was performed using PI 3-kinase immunoprecipitated from human platelets as the enzyme and PI as the substrate. The PI 3-kinase activity was quantitated by measuring the enzymatic incorporation of [^32P] into PI, forming PI([^32P]-3)P, as previously described (Susa et al., 1992, The Journal of Biological Chemistry 267(32):22951-22956.
Washed human platelets were lysed in Triton X-100 lysis buffer (10 mM Tris, pH 7.4, 1% Triton X-100, 2 mM EDTA, 1 mM PMSF) for 30 minutes. The Triton X-100 insoluble fraction was removed by centrifugation of the cell lysates at 15,000 g for 10 minutes. PI 3-kinase was immunoprecipitated by mixing 500 μg of the cell lysate with 1 μg of a rabbit anti-rat antibody against the p85/110 form of PI 3-kinase and 30 μl of 50% Protein A-sepharose beads for 2 hours at 4° C. The Protein A-sepharose-bound PI 3-kinase was isolated by pelleting the beads at 15,000 g for 5 seconds, and washing three times with ice-old Triton X-100 lysis buffer followed by four washes with PI 3-kinase assay buffer (20 mM HEPES, pH 7.4, 1 mM EGTA, 5 mM MgCl2).
PI stored in CHCl3 was dried under N2, resuspended in the lipid buffer (50 mM HEPES, pH 7.2, 1 mM EDTA) at a final concentration of 330 μg/ml, and sonicated for 6 minutes on ice. PI([^32P]-3)P was generated by mixing the immunoprecipitated PI 3-kinase for 20 minutes with 40 μl of the PI, 10 μl of ATP (1 mM) and ^32P-r-ATP (0.5 μCi, 1 μCi/nmol), 10 μl of 10× kinase buffer, in a final assay volume of 100 μl adjusted with H2O. TGX-25, TGX-33, TGX-37, TGX-40, TGX-41, TGX-57, TGX-84, TGX-90, TGX-93, TGX-98, TGX-99, TGX-101, TGX-106, TGX-107, TGX-108, TGX-109, TGX-111, TGX-112, TGX-113, TGX-115, TGX-120, TGX-121, TGX-123, TGX-124, TGX-126, TGX-127, TGX-130 or TGX-131 was preincubated with the PI 3-kinase for 5 minutes prior to the addition of ATP. The assay was terminated with 100 μl of 1 N HCl, and the PI([^32P]-3)P product extracted with 200 μl chloroform:methanol (1:1) and 500 μl 2 M KCl. The PI([^32P]-3)P in the chloroform phase was resolved by thin layer chromatography using a solvent system containing CHCl3:MeOH:HAC:H2O (43:38:5:7) (v:v:v:v), and visualized by autoradiography. The PI([^32P]-3)P spots were then scraped off from the TLC plates, deacylated with 1 ml methylamine:butanol:methanol (42:9:47) (v:v:v) for 4 hours at 53° C., and quantitated using a liquid scintillation counter (LKB 1209 RackBETA).

[2] = target: PI3K α/β isoforms; experiment: In vitro enzyme assay PI3K α/β; details: immunoprecipitated from platelet lysate
Description: (§1) In vitro enzyme assays were conducted as a primary screen to determine drug candidate isoform affinity and specificity.
(§2) The α and β isoforms of the PI3K were immunoprecipitated from a platelet lysate using an antibody that recognised the p85 regulatory subunit common to both forms of the enzyme. The γ isoform was produced as a recombinant protein in the Thrombogenix laboratories. […] Standard phosphorylation assays using phosphatidylinositol and ^32P were used to measure the enzyme activity in the immunoprecipates in the presence or absence of an inhibitor. Enzyme activity was determined over a range of inhibitor concentrations to establish an IC50 value.

[3] = target: T1, PI3K γ (Homo sapiens, UniProt P48736); experiment: In vitro enzyme assay PI3K γ (recombinant); details: recombinant γ isoform
T1 construct: made in house
Description: as §1, §2

T1 sequence (P48736 whole entry, species assumed, canonical isoform): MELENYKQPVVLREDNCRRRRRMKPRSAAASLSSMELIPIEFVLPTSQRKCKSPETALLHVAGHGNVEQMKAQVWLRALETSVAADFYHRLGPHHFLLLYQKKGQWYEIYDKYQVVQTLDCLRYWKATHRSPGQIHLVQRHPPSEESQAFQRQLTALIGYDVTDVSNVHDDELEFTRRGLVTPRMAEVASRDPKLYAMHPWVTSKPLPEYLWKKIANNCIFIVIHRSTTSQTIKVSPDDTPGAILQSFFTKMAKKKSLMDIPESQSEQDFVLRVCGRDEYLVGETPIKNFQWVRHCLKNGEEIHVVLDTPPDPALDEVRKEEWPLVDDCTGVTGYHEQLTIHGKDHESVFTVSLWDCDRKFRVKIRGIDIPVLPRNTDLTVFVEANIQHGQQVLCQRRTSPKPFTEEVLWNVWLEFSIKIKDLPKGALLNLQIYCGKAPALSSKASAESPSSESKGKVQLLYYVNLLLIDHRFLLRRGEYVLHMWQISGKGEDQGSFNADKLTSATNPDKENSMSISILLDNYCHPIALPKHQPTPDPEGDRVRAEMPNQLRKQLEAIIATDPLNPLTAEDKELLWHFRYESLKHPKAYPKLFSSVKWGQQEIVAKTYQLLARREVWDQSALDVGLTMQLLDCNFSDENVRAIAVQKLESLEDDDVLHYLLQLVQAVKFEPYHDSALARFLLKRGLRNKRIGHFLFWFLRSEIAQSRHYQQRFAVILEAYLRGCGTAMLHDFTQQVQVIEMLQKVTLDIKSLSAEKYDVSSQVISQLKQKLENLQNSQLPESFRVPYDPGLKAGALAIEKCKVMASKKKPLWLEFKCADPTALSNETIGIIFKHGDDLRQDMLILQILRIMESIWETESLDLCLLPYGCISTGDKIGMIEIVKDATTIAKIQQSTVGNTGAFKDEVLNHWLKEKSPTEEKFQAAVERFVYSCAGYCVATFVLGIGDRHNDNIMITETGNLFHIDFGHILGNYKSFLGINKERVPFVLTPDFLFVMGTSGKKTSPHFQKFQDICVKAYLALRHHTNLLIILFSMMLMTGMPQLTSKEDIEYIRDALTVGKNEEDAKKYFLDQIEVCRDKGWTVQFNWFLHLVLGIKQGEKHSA

SMILES	IC50 [1] [nM]	IC50 [2] [nM]	IC50 [3] [µM]
Cc1cccn2c(=O)cc(N3CCOCC3)nc12 [TGX-25]	~11100	–	–
O=c1cc(N2CCOCC2)nc2c(-c3ccccc3)cccn12 [TGX-37]	~10500	–	–
Cc1cc(-c2ccccc2)c2nc(N3CCOCC3)cc(=O)n2c1 [TGX-41]	~9800	–	–
O=c1cc(N2CCOCC2)[nH]c2c(Cc3ccccc3)cccc12 [TGX-57, 8-Benzyl-2-morpholinoquinolone]	2000	–	–
O=c1cc(N2CCOCC2)oc2c(Cc3ccccc3)cccc12 [TGX-90, 2-morpholinyl-8-(phenylmethyl)-4H-1-benzopyran-4-one]	100	100	3
Cc1cc(-c2ccsc2)c2nc(N3CCOCC3)cc(=O)n2c1 [TGX-93]	1000	–	–
Cc1cc(CCc2ccncc2)c2nc(N3CCOCC3)cc(=O)n2c1 [TGX-98]	1000	–	–
O=c1cc(N2CCOCC2)[nH]c2c(Cc3ccc(F)cc3)cccc12 [TGX-99]	1000	–	–
Cc1cc(Nc2ccc(O)cc2)c2nc(N3CCOCC3)cc(=O)n2c1 [TGX-101]	100	100	2
O=c1cc(N2CCOCC2)oc2c(OCc3ccccc3)cccc12 [TGX-102]	100	100	2
Cc1ccc(Cc2cccc3c(=O)cc(N4CCOCC4)[nH]c23)cc1 [TGX-106]	2000	–	–
Cc1cc(Nc2ccc(Cl)cc2)c2nc(N3CCOCC3)cc(=O)n2c1 [TGX-107]	1000	–	–
Cc1cc(NCc2ccc(Cl)cc2)c2nc(N3CCOCC3)cc(=O)n2c1 [TGX-108]	1000	–	–
Cc1ccc(Oc2cc(C)cn3c(=O)cc(N4CCOCC4)nc23)cc1 [TGX-109]	1000	–	–
O=c1cc(N2CCOCC2)[nH]c2c(Sc3ccccc3)cccc12 [TGX-111]	50	50	> 10
Cc1cc(NCc2ccncc2)c2nc(N3CCOCC3)cc(=O)n2c1 [TGX-112]	500	–	–
Cc1ccc(Oc2cccc3c(=O)cc(N4CCOCC4)[nH]c23)cc1 [TGX-113]	500	–	–
Cc1ccccc1Oc1cccc2c(=O)cc(N3CCOCC3)[nH]c12 [TGX-115, 8-(2′-Methylphenoxy)-2-morpholino-4-quinoline]	50	50	5
O=c1cc(N2CCOCC2)oc2cc(/C=C/c3ccccc3)ccc12 [TGX-118]	10000	–	–

SMILES	IC50 [1] [nM]	IC50 [2] [nM]	IC50 [3] [µM]
Cc1cc(Nc2ccncc2)c2nc(N3CCOCC3)cc(=O)n2c1 [TGX-120]	1000	–	–
O=c1cc(N2CCOCC2)[nH]c2c(Oc3ccc(F)cc3)cccc12 [TGX-121]	50	50	5
Cc1cc(N[C@@H](C)c2ccccc2)c2nc(N3CCOCC3)cc(=O)n2c1 [TGX-124]	1000	–	–
O=c1cc(N2CCOCC2)oc2c(O)cccc12 [TGX-125]	25000	–	–
Cc1cc(NCc2ccccc2)c2nc(N3CCOCC3)cc(=O)n2c1 [TGX-126]	50	50	> 10
Cc1cccc(Oc2cccc3c(=O)cc(N4CCOCC4)[nH]c23)c1 [TGX-127]	50	50	5 to 10
Cc1cc(Nc2ccccc2O)c2nc(N3CCOCC3)cc(=O)n2c1 [TGX-130]	200	–	–
O=c1cc(N2CCOCC2)oc2c(OCc3cccnc3)cccc12 [TGX-132]	1000	–	–
O=c1cc(N2CCOCC2)oc2c(Oc3ccccc3)cccc12 [TGX-134, 2-(4-morpholinyl)-8-phenoxy-4H-1-benzopyran-4-one]	100	100	0.2
O=c1cc(N2CCOCC2)oc2c(-c3ccccc3C(F)(F)F)cccc12 [TGX-135, 2-morpholinyl-8-(2-trifluoromethylphenyl)-4H-1benzopyran-4-one]	200	–	–
COc1ccccc1CNc1cc(C)cn2c(=O)cc(N3CCOCC3)nc12 [TGX-137]	50	50	5
Cc1ccc(S(=O)(=O)Oc2cccc3c(=O)cc(N4CCOCC4)[nH]c23)cc1 [TGX-138]	1000	–	–
Cc1cc(NCC2CCNCC2)c2nc(N3CCOCC3)cc(=O)n2c1 [TGX-139]	1000	–	–
O=c1cc(N2CCOCC2)nc2c(Oc3ccccc3)cccn12 [TGX-141, 2-Morpholinyl-8-phenoxy-4H-pyrido[1,2a]pyrimidin-4-one]	1000	–	–
Cc1cc(-c2ccccc2C(F)(F)F)c2nc(N3CCOCC3)cc(=O)n2c1 [TGX-142]	2000	–	–
O=c1cc(N2CCOCC2)[nH]c2c(Oc3ccccc3F)cccc12 [TGX-143]	150	150	2
O=c1cc(N2CCOCC2)oc2cc(OCc3cccnc3)ccc12 [TGX-144]	2000	–	–
Cc1ccccc1-c1cccc2c(=O)cc(N3CCOCC3)oc12 [TGX-145, 2-morpholinyl-8-(2-methylphenyl)-4H-1-benzopyran-4-one]	2000	–	–
O=c1cc(N2CCOCC2)oc2c(-c3ccccc3Cl)cccc12 [TGX-146, 2-morpholinyl-8-(2-chlorophenyl)-4H-1-benzopyran-4-one]	500	–	–

SMILES	IC50 [1] [nM]	IC50 [2] [nM]	IC50 [3] [µM]
Cc1cc(Nc2ccccc2C(F)(F)F)c2nc(N3CCOCC3)cc(=O)n2c1 [TGX-147]	5000	–	–
COC(=O)c1cccc(Oc2cccc3c(=O)cc(N4CCOCC4)[nH]c23)c1 [TGX-149]	500	–	–
O=C(O)c1cccc(Oc2cccc3c(=O)cc(N4CCOCC4)[nH]c23)c1 [TGX-151]	500	–	–
Cc1cc(C2CCN(C)C2=O)c2nc(N3CCOCC3)cc(=O)n2c1 (stereo not drawn) [TGX-153]	20000	–	–
Cc1c(OCc2ccccc2)ccc2c(=O)cc(N3CCOCC3)oc12 [TGX-154]	10000	–	–
Cc1c(Oc2ccccc2)ccc2c(=O)cc(N3CCOCC3)oc12 [TGX-157]	5000	–	–
Cc1c(Oc2ccccc2)ccc2c(=O)cc(N3CCOCC3)oc12 [TGX-158]	5000	–	–
Cc1c(Oc2ccccc2)ccc2c(=O)cc(N3CCOCC3)oc12 [TGX-159]	10000	–	–
Cc1c(Oc2ccccc2)ccc2c(=O)cc(N3CCOCC3)oc12 [TGX-160]	2000	–	–
Cc1cc(NCc2ccccn2)c2nc(N3CCOCC3)cc(=O)n2c1 [TGX-161]	500	–	–
Cc1cc(Nc2ccccc2OCCN(C)C)c2nc(N3CCOCC3)cc(=O)n2c1 [TGX-162]	2000	–	–
O=c1cc(N2CCOCC2)oc2c(-c3ccc(F)cc3)cccc12 [TGX-165, 2-morpholinyl-8-(4-fluorophenyl)-4H-1-benzopyran-4-one]	1000	–	–
Cc1cc(Nc2ccc(F)cc2C)c2nc(N3CCOCC3)cc(=O)n2c1 [TGX-170]	200	–	–
Cc1cc(Oc2cccc3c(=O)cc(N4CCOCC4)oc23)ccc1F [TGX-173, 8-(4-fluoro-3-methylphenyl)oxy-2-morpholinyl-4H-1-benzopyran-4-one]	100	150	–
Cc1cc(Nc2ccc(O)cc2C)c2nc(N3CCOCC3)cc(=O)n2c1 [TGX-174]	100	100	5
Cc1cc(Nc2ncccc2C)c2nc(N3CCOCC3)cc(=O)n2c1 [TGX-179]	10000	–	–
Cc1cc(Cl)ccc1Oc1cccc2c(=O)cc(N3CCOCC3)[nH]c12 [TGX-180]	1000	–	–
Cc1cc(CNc2ccccc2)c2nc(N3CCOCC3)cc(=O)n2c1 [TGX-183, 6-methyl-8-phenylaminomethyl-2-morpholinyl-4H-pyrido[1,2]pyrimidin-4-one]	–	50	–
